Experimental data reported in US20240109836A1, “NON-HALL[…] ANALOGS FOR TREATMENT OF NEUROLOGICAL AND PSYCHIATRIC DISORDERS” (The Trustees of Columbia University in the City of New York, priority 2021, published 2024).

Columns and labels:
[1] = at therapeutically effective doses in animals and humans; cited from earlier work
5-HT1B = experiment: SafetyScreen44 (Panlabs) panel; assay type: binding; conditions: 10 μM
Description: (§1) Other targets included with less than ≥50% stimulation at a concentration of 10 μM: Acetylcholinesterase, COX-1, COX-2, MAO-A, PDE3A, PDE4D2, Protein Tyrosine Kinase (LCK), Adenosine A2A, Adrenergic α1A, Adrenergic α2A, Adrenergic β1, Adrenergic β2, Androgen (Testosterone), Calcium Channel L-Type (Dihydropyridine), CB1, CB2, Cholecystokinin CCK1 (CCKA), Dopamine D1, Dopamine D2S, Endothelin ETA, GABAA (Flunitrazepam, Central), Glucocorticoid, Glutamate-NMDA (Agonism), Histamine H1, Histamine H2, Muscarinic M1, Muscarinic M2, Muscarinic M3, Nicotinic Acetylcholine α4β2, (Cytisine), DOP, KOP, MOP, Potassium Channel [KA], Potassium Channel hERG, Serotonin (5-Hydroxytryptamine) 5-HT1A, 5-HT1B, 5-HT3, Na-channel site 2, DAT, NET, SERT, Vasopressin V1A

Adrenergic α2A = biological target: T1, Adrenergic α2A (Homo sapiens, UniProt P08913); experiment: SafetyScreen44 (Panlabs) panel; assay type: binding; conditions: 10 μM
T1 construct: Panlabs (SafetyScreen44 panel)
Description: as §1

Adrenergic β2 = biological target: T2, Adrenergic β2 (Homo sapiens, UniProt P07550); experiment: SafetyScreen44 (Panlabs) panel; assay type: binding; conditions: 10 μM
T2 construct: Panlabs (SafetyScreen44 panel)
Description: as §1

Na-channel site 2 = experiment: SafetyScreen44 (Panlabs) panel; assay type: binding; conditions: 10 μM
Description: as §1

Muscarinic M1 = biological target: T3, Muscarinic M1 (Homo sapiens, UniProt P11229); experiment: SafetyScreen44 (Panlabs) panel; assay type: binding; conditions: 10 μM
T3 construct: Panlabs (SafetyScreen44 panel)
T3 sequence (P11229 whole entry): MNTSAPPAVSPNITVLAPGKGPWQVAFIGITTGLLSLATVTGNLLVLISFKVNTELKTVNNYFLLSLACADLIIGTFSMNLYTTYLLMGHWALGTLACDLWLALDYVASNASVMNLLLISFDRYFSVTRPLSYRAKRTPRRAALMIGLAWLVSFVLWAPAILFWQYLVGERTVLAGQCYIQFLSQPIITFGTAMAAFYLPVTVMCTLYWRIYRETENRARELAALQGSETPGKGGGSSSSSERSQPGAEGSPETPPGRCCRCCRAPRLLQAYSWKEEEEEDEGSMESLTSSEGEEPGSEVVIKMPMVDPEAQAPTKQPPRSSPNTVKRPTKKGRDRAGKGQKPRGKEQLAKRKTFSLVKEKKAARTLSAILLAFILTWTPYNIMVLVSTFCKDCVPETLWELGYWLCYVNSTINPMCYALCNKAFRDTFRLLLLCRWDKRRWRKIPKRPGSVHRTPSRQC
Description: as §1

Potassium Channel [KA] = experiment: SafetyScreen44 (Panlabs) panel; assay type: binding; conditions: 10 μM
Description: as §1

CB1 = biological target: T4, CB1 (Homo sapiens, UniProt P21554); experiment: SafetyScreen44 (Panlabs) panel; assay type: binding; conditions: 10 μM
T4 construct: Panlabs (SafetyScreen44 panel)
Description: as §1

[2] = system: Calcium Channel L-Type (Dihydropyridine); experiment: SafetyScreen44 (Panlabs) panel; assay type: binding; conditions: 10 μM
Description: as §1

[3] = system: GABAA (Flunitrazepam, Central); experiment: SafetyScreen44 (Panlabs) panel; assay type: binding; conditions: 10 μM
Description: as §1

Adrenergic β1 = biological target: T5, Adrenergic β1 (Homo sapiens, UniProt P08588); experiment: SafetyScreen44 (Panlabs) panel; assay type: binding; conditions: 10 μM
T5 construct: Panlabs (SafetyScreen44 panel)
Description: as §1

[4] = biological target: T6, Nicotinic Acetylcholine α4β2, (Cytisine) (Homo sapiens, UniProt P17787+P43681); experiment: SafetyScreen44 (Panlabs) panel; assay type: binding; conditions: 10 μM
T6 construct: Panlabs (SafetyScreen44 panel)
Description: as §1

Potassium Channel hERG = biological target: T7, Potassium Channel hERG (Homo sapiens, UniProt Q12809); experiment: SafetyScreen44 (Panlabs) panel; assay type: binding; conditions: 10 μM
T7 construct: Panlabs (SafetyScreen44 panel)
Description: as §1

5-HT3 = biological target: T8, 5-HT3 (Homo sapiens, UniProt P46098); experiment: SafetyScreen44 (Panlabs) panel; assay type: binding; conditions: 10 μM
T8 construct: Panlabs (SafetyScreen44 panel)
Description: as §1

[5] = biological target: T9, Cholecystokinin CCK1 (CCKA) (Homo sapiens, UniProt P32238); experiment: SafetyScreen44 (Panlabs) panel; assay type: binding; conditions: 10 μM
T9 construct: Panlabs (SafetyScreen44 panel)
Description: as §1

Glutamate-NMDA (Agonism) = experiment: SafetyScreen44 (Panlabs) panel; assay type: binding; conditions: 10 μM
Description: as §1

Adrenergic α1A = biological target: T10, Adrenergic α1A (Rattus norvegicus, UniProt P43140); experiment: SafetyScreen44 (Panlabs) panel; assay type: binding; conditions: 10 μM
T10 construct: Panlabs (SafetyScreen44 panel)
Description: as §1

Androgen (Testosterone) = experiment: SafetyScreen44 (Panlabs) panel; assay type: binding; conditions: 10 μM
Description: as §1

Muscarinic M3 = biological target: T11, Muscarinic M3 (Homo sapiens, UniProt P20309); experiment: SafetyScreen44 (Panlabs) panel; assay type: binding; conditions: 10 μM
T11 construct: Panlabs (SafetyScreen44 panel)
Description: as §1

KOP = biological target: T12, KOP (Homo sapiens, UniProt P41145); experiment: SafetyScreen44 (Panlabs) panel; assay type: binding; conditions: 10 μM
T12 construct: Panlabs (SafetyScreen44 panel)
Description: as §1

CB2 = biological target: T13, CB2 (Homo sapiens, UniProt P34972); experiment: SafetyScreen44 (Panlabs) panel; assay type: binding; conditions: 10 μM
T13 construct: Panlabs (SafetyScreen44 panel)
Description: as §1

Dopamine D2S = biological target: T14, Dopamine D2S (Homo sapiens, UniProt P14416); experiment: SafetyScreen44 (Panlabs) panel; assay type: binding; conditions: 10 μM
T14 construct: Panlabs (SafetyScreen44 panel)
T14 sequence (P14416 1-414 isoform P14416-2): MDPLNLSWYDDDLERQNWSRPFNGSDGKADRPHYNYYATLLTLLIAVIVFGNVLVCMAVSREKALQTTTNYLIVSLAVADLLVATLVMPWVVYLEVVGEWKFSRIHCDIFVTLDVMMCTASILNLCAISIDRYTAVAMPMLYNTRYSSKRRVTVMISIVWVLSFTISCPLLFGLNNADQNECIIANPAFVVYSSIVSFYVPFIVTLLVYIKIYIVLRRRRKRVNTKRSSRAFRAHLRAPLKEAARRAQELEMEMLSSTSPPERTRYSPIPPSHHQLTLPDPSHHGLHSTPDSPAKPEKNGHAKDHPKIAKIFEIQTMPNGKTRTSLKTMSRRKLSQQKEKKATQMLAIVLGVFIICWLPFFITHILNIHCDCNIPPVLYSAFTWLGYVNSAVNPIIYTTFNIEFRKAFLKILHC
Description: as §1

NET = biological target: T15, NET (Homo sapiens, UniProt P23975); experiment: SafetyScreen44 (Panlabs) panel; assay type: binding; conditions: 10 μM
T15 construct: Panlabs (SafetyScreen44 panel)
T15 sequence (P23975 whole entry): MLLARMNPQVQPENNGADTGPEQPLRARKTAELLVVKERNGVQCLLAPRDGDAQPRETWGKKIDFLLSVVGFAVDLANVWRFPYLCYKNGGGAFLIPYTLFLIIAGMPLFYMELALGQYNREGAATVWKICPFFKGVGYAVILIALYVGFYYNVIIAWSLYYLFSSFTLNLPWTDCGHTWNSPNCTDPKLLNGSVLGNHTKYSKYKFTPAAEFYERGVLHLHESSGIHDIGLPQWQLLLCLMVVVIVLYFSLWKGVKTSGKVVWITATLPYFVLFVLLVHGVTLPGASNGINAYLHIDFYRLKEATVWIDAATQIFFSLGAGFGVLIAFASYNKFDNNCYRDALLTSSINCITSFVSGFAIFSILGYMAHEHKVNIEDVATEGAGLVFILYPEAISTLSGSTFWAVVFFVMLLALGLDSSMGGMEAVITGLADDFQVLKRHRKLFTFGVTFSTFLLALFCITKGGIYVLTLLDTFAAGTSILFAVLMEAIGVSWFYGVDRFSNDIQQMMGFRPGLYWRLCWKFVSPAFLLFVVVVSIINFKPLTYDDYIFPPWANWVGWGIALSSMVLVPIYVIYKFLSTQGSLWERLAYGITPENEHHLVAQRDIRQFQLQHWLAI
Description: as §1

Glucocorticoid = biological target: T16, Glucocorticoid (Homo sapiens, UniProt P04150); experiment: SafetyScreen44 (Panlabs) panel; assay type: binding; conditions: 10 μM
T16 construct: Panlabs (SafetyScreen44 panel)
Description: as §1

Adenosine A2A = biological target: T17, Adenosine A2A (Homo sapiens, UniProt P29274); experiment: SafetyScreen44 (Panlabs) panel; assay type: binding; conditions: 10 μM
T17 construct: Panlabs (SafetyScreen44 panel)
Description: as §1

SERT = biological target: T18, SERT (Homo sapiens, UniProt P31645); experiment: SafetyScreen44 (Panlabs) panel; assay type: binding; conditions: 10 μM
T18 construct: Panlabs (SafetyScreen44 panel)
Description: as §1

[6] = biological target: T19, Serotonin (5-Hydroxytryptamine) 5-HT1A (Homo sapiens, UniProt P08908); experiment: SafetyScreen44 (Panlabs) panel; assay type: binding; conditions: 10 μM
T19 construct: Panlabs (SafetyScreen44 panel)
Description: as §1

Vasopressin V1A = biological target: T20, Vasopressin V1A (Homo sapiens, UniProt P37288); experiment: SafetyScreen44 (Panlabs) panel; assay type: binding; conditions: 10 μM
T20 construct: Panlabs (SafetyScreen44 panel)
T20 sequence (P37288 whole entry): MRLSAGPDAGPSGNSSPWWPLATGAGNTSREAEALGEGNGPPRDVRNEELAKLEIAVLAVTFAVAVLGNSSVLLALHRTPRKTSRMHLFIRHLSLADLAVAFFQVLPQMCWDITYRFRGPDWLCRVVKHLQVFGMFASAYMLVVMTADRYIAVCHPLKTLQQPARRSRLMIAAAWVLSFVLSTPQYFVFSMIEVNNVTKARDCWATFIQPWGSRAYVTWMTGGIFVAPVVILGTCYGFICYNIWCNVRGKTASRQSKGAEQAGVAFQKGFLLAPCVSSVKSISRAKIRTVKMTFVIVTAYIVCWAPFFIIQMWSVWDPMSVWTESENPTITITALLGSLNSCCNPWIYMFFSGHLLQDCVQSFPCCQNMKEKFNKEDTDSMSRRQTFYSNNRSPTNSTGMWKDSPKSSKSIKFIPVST
Description: as §1

MOP = biological target: T21, MOP (Homo sapiens, UniProt P35372); experiment: SafetyScreen44 (Panlabs) panel; assay type: binding; conditions: 10 μM
T21 construct: Panlabs (SafetyScreen44 panel)
Description: as §1

Endothelin ETA = biological target: T22, Endothelin ETA (Homo sapiens, UniProt P25101); experiment: SafetyScreen44 (Panlabs) panel; assay type: binding; conditions: 10 μM
T22 construct: Panlabs (SafetyScreen44 panel)
Description: as §1

Histamine H1 = biological target: T23, Histamine H1 (Homo sapiens, UniProt P35367); experiment: SafetyScreen44 (Panlabs) panel; assay type: binding; conditions: 10 μM
T23 construct: Panlabs (SafetyScreen44 panel)
T23 sequence (P35367 whole entry): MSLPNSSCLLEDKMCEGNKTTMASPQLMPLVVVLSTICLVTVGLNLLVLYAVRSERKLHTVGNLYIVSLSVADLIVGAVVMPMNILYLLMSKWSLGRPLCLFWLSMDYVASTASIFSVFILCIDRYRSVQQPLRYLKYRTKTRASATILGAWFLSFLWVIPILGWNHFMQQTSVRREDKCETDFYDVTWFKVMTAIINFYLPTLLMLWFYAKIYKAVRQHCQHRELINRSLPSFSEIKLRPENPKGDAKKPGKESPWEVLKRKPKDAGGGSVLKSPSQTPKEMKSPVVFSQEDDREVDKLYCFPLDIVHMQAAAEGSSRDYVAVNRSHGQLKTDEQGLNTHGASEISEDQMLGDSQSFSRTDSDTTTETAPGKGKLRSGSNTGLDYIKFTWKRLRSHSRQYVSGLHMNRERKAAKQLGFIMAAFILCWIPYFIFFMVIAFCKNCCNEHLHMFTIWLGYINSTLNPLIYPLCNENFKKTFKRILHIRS
Description: as §1

DOP = biological target: T24, DOP (Homo sapiens, UniProt P41143); experiment: SafetyScreen44 (Panlabs) panel; assay type: binding; conditions: 10 μM
T24 construct: Panlabs (SafetyScreen44 panel)
Description: as §1

Muscarinic M2 = biological target: T25, Muscarinic M2 (Homo sapiens, UniProt P08172); experiment: SafetyScreen44 (Panlabs) panel; assay type: binding; conditions: 10 μM
T25 construct: Panlabs (SafetyScreen44 panel)
Description: as §1

DAT = biological target: T26, DAT (Homo sapiens, UniProt Q01959); experiment: SafetyScreen44 (Panlabs) panel; assay type: binding; conditions: 10 μM
T26 construct: Panlabs (SafetyScreen44 panel)
Description: as §1

Dopamine D1 = biological target: T27, Dopamine D1 (Homo sapiens, UniProt P21728); experiment: SafetyScreen44 (Panlabs) panel; assay type: binding; conditions: 10 μM
T27 construct: Panlabs (SafetyScreen44 panel)
Description: as §1

Histamine H2 = biological target: T28, Histamine H2 (Homo sapiens, UniProt P25021); experiment: SafetyScreen44 (Panlabs) panel; assay type: binding; conditions: 10 μM
T28 construct: Panlabs (SafetyScreen44 panel)
T28 sequence (P25021 whole entry): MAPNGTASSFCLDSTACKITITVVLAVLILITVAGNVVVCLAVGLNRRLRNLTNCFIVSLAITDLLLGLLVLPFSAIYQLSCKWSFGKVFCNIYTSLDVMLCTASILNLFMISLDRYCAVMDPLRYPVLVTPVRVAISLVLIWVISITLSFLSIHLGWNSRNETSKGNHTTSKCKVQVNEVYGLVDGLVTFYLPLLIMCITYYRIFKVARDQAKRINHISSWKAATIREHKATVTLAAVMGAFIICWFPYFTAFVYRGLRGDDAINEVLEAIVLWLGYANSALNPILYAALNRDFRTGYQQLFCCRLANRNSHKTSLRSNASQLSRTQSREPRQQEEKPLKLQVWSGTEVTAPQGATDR
Description: as §1

[7] = biological target: T29, Serotonin (5-Hydroxytryptamine) 5-HT2A (Homo sapiens, UniProt P28223); experiment: SafetyScreen44 (Panlabs) panel, replacement of standard ligand; assay type: binding; conditions: hum
T29 construct: Panlabs (SafetyScreen44 panel)
T29 sequence (P28223 whole entry): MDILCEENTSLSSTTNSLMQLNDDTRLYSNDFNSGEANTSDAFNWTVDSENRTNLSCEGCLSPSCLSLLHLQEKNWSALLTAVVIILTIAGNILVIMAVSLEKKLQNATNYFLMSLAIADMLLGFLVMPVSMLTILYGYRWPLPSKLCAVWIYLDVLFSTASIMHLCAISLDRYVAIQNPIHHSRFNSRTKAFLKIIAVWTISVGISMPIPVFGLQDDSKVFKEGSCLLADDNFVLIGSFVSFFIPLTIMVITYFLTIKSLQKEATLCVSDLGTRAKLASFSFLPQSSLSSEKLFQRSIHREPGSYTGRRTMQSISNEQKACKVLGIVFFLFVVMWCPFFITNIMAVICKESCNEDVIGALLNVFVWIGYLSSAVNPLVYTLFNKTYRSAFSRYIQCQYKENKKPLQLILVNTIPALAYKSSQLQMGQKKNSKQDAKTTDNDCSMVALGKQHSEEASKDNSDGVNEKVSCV

5-HT2A = 5-HT2A (Homo sapiens, UniProt P28223); experiment: IP1 agonist functional assay; assay type: cell-based; conditions: 5HT2A versus 5HT2B, relative agonism potencies
5-HT2A, sequence (P28223 whole entry): as above

[8] = biological target: T30, Serotonin (5-Hydroxytryptamine) 5-HT2B (Homo sapiens, UniProt P41595); experiment: SafetyScreen44 (Panlabs) panel, replacement of standard ligand; assay type: binding; conditions: hum
T30 construct: Panlabs (SafetyScreen44 panel)

5-HT2B = 5-HT2B (Homo sapiens, UniProt P41595); experiment: IP1 agonist functional assay; assay type: cell-based
COX-2 = biological target: T31, COX-2 (Homo sapiens, UniProt P35354); experiment: SafetyScreen44 (Panlabs) panel; assay type: biochemical; conditions: 10 μM
T31 construct: Panlabs (SafetyScreen44 panel)
T31 sequence (P35354 18-604): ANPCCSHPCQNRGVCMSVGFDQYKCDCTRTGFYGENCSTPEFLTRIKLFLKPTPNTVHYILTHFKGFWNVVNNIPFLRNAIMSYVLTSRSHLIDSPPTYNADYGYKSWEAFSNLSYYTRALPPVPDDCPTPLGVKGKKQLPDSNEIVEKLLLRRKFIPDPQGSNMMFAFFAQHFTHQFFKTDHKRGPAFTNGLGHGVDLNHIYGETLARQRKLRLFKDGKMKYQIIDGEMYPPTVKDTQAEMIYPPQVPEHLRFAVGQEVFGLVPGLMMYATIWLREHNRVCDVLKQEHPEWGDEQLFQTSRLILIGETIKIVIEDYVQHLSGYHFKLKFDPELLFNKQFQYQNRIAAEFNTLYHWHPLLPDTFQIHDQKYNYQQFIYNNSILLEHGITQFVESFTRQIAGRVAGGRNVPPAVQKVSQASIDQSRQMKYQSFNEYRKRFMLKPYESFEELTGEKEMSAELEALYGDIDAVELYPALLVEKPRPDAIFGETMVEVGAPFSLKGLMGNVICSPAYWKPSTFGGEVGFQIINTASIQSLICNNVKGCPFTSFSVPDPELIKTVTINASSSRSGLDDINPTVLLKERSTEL
Description: as §1

COX-1 = biological target: T32, COX-1 (Homo sapiens, UniProt P23219); experiment: SafetyScreen44 (Panlabs) panel; assay type: biochemical; conditions: 10 μM
T32 construct: Panlabs (SafetyScreen44 panel)
Description: as §1

[9] = biological target: T33, Protein Tyrosine Kinase (LCK) (Homo sapiens, UniProt P06239); experiment: SafetyScreen44 (Panlabs) panel; assay type: biochemical; conditions: 10 μM
T33 construct: Panlabs (SafetyScreen44 panel)
T33 sequence (P06239 whole entry): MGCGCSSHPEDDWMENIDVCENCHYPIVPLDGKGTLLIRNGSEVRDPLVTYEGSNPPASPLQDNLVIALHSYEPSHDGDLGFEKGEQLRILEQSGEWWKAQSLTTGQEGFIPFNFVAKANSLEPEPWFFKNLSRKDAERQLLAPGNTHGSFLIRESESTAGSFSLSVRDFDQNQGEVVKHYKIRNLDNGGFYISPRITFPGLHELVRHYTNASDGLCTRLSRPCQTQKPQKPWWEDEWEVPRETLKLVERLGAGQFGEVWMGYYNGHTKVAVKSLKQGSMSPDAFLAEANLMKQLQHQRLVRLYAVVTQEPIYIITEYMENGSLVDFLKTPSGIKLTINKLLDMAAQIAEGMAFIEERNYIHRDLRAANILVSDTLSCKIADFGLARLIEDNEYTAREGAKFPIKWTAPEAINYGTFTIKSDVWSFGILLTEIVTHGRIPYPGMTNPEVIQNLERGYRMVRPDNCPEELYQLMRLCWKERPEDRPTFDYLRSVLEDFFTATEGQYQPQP
Description: as §1

MAO-A = biological target: T34, MAO-A (Homo sapiens, UniProt P21397); experiment: SafetyScreen44 (Panlabs) panel; assay type: biochemical; conditions: 10 μM
T34 construct: Panlabs (SafetyScreen44 panel)
Description: as §1

PDE4D2 = biological target: T35, PDE4D2 (Homo sapiens, UniProt Q08499); experiment: SafetyScreen44 (Panlabs) panel; assay type: biochemical; conditions: 10 μM
T35 construct: Panlabs (SafetyScreen44 panel)
Description: as §1

Acetylcholinesterase = biological target: T36, Acetylcholinesterase (Homo sapiens, UniProt P22303); experiment: SafetyScreen44 (Panlabs) panel; assay type: biochemical; conditions: 10 μM
T36 construct: Panlabs (SafetyScreen44 panel)
Description: as §1

PDE3A = biological target: T37, PDE3A (Homo sapiens, UniProt Q14432); experiment: SafetyScreen44 (Panlabs) panel; assay type: biochemical; conditions: 10 μM
T37 construct: Panlabs (SafetyScreen44 panel)
Description: as §1

Forced swim test = assay type: in vivo, Mice (C57bl/6J); conditions: mice, 10 mg/kg s.c., 15 minutes post injection
Description: FIG. 1. […] N=5 mice (saline), N=10 (imipramine as a positive control), N=9 mice (Ariadne cohort). Y-axis show the immobility time per each testing session. Drugs were administered subcutaneously (s.c.).
Mice (C57bl/6J, 8-15 weeks, 29-35 g) were weighed and moved to the testing room 30 minutes prior to experimentation. Mice were administered 0.85% saline (s.c., 5 mice), imipramine 15 mg/kg (i.p., 10 mice), or Ariadne (32) 10 mg/kg (s.c., 9 mice). 15 minutes post injection the mice were moved to a forced swim cylinder with water kept at 23.8-25.0 degrees celsius. Mice were allowed to swim for 6 minutes after which they were removed, dried, and returned to their home cage. The last four minutes of the forced swim video footage was analyzed with Noldus FST scoring software. The mouse's view of the FST cylinder was obstructed prior to starting the forced swim test.

[10] = Head twitch response assay; assay type: in vivo, Mice (C57bl/6J); conditions: mice, 1, 3, 10, and 30 mg/kg s.c., vs positive control DOI
Description: FIG. 2. […] N=5 mice in each cohort. […] Drugs were administered s.c.
Mice (C57bl/6J, 8-15 weeks, 26-33 g) were weighed and moved to the testing room 30 minutes prior to experimentation. Mice were administered the experimental compound at a selected dose s.c. and then immediately moved to a new cage. Before beginning the test, mice were allowed to remain in this cage for a set amount of time ranging 0-10 min based on the compound. The head twitch assay was performed by a trained observer watching the mouse for a 10 min duration and recording the total number of head twitches observed.
DOI was tested at the doses of 1, 3, 10 and 30 mg/kg (s.c., 5 mice per dose) and testing began immediately after administration of the compound. Ariadne (32), (29) and (38) were tested at the doses of 1, 3, 10, and 30 mg/kg (s.c., 5 mice per dose) and there was a 10 min interval between treatment and testing.

CCC(N)Cc1cc(OC)c(C)cc1OC (stereo not shown) [Ariadne (32), 1-(2,5-dimethoxy-4-methylphenyl)butan-2-amine]
> 32 µM: EC50 (5-HT2B)
no hallucinogenic effect: hallucinogenic effect [1]
25x: Selectivity (EC50 2B ÷ EC50 2A) (5-HT2A)
antidepressant-like effects: antidepressant-like effects (immobility time) (Forced swim test)
< 50%: % stimulation (5-HT1B) | % stimulation (Adrenergic α2A) | % stimulation (Adrenergic β2) | % stimulation (Na-channel site 2) | % stimulation (Muscarinic M1) | % stimulation (Potassium Channel [KA]) | % stimulation (CB1) | % stimulation [2] | % stimulation [3] | % stimulation (Adrenergic β1) | % stimulation [4] | % stimulation (Potassium Channel hERG) | % stimulation (5-HT3) | % stimulation [5] | % stimulation (Glutamate-NMDA (Agonism)) | % stimulation (Adrenergic α1A) | % stimulation (Androgen (Testosterone)) | % stimulation (Muscarinic M3) | % stimulation (KOP) | % stimulation (CB2) | % stimulation (Dopamine D2S) | % stimulation (NET) | % stimulation (Glucocorticoid) | % stimulation (Adenosine A2A) | % stimulation (SERT) | % stimulation [6] | % stimulation (Vasopressin V1A) | % stimulation (MOP) | % stimulation (Endothelin ETA) | % stimulation (Histamine H1) | % stimulation (DOP) | % stimulation (Muscarinic M2) | % stimulation (DAT) | % stimulation (Dopamine D1) | % stimulation (Histamine H2) | % stimulation (COX-2) | % stimulation (COX-1) | % stimulation [9] | % stimulation (MAO-A) | % stimulation (PDE4D2) | % stimulation (Acetylcholinesterase) | % stimulation (PDE3A)
72%: inhibition at 10 µM [7] | inhibition at 10 µM [8]
lower psychedelic activity: psychedelic activity (number of head twitches in a 10-min period) [10]
